According to article PMC7195552 (Journal of Burn Care & Research: Official Publication of …, 2020):
Read-outs that look alike come from different tables or passages of the source.

Experiments:
[1] = Plasma pharmacokinetics of daptomycin in patients with severe burn injuries (LC-MS/MS, DAS 2.0); type: in vivo, human; conditions: for half-life: read-out: t(h)½ (converted)
Procedure: Multiple-dose medication treatment means that daptomycin was administered to burn injury patients as one injection every day of either the standard dose or a high dose. […] During intravenous infusion, vigorous agitation or shaking during drug dissolution was not permitted, thus preventing the formation of gas bubbles. […] The samples were centrifuged and stored at −80°C until required for analysis. PK evaluation was performed by measuring the daptomycin levels in blood samples, using liquid chromatography–mass spectrometry/mass spectrometry (LC-MS/MS) (Waters Micromass Quattro Micro API LC-MS/MS). Chromatographic separation was performed at 35°C using a RP-C18 (Welch Ultimate, 3.0 mm × 150 mm) analytical column. […] PK parameters were calculated using DAS 2.0. […] The maximum plasma concentration (Cmax) and the time at which it occurred (Tmax) were determined directly from the measured plasma concentration–time without interpolation. […] The total body clearance (CL) was obtained from dose/AUC0–∞. The volume of distribution (Vd) was calculated using the equation CL/Ke.

[2] = Creatine phosphokinase levels and adverse events during daptomycin treatment; type: in vivo, human
Text: The level returned to a normal value without discontinuation of daptomycin treatment. There were no significant CPK differences in the indicated time points between the groups (Table 8).

[3] = Hepatorenal function index of patients after daptomycin medication; conditions: 12 mg/kg/d, average ± SD n = 7, patients received supplemental plasma albumin
Procedure: All statistical analyses were conducted using SAS™ 9.3 software (Cary, NC) and a P value <.05 was considered to be statistically significant.

[4] = patient 1, 12 mg/kg/d iv, multiple dose
[5] = patient 1, 12 mg/kg/d iv, single dose
[6] = patient 2, 12 mg/kg/d iv, multiple dose
[7] = patient 2, 12 mg/kg/d iv, single dose
[8] = patient 3, 12 mg/kg/d iv, multiple dose
[9] = patient 3, 12 mg/kg/d iv, single dose
[10] = patient 4, 12 mg/kg/d iv, multiple dose
[11] = patient 4, 12 mg/kg/d iv, single dose
[12] = patient 5, 12 mg/kg/d iv, multiple dose
[13] = patient 5, 12 mg/kg/d iv, single dose
[14] = patient 6, 12 mg/kg/d iv, multiple dose
[15] = patient 6, 12 mg/kg/d iv, single dose
[16] = patient 7, 12 mg/kg/d iv, multiple dose
[17] = patient 7, 12 mg/kg/d iv, single dose
[18] = patient 8, 6 mg/kg/d iv, multiple dose
[19] = patient 8, 6 mg/kg/d iv, single dose
[20] = patient 9, 6 mg/kg/d iv, multiple dose
[21] = patient 9, 6 mg/kg/d iv, single dose
[22] = patient 10, 6 mg/kg/d iv, multiple dose
[23] = patient 10, 6 mg/kg/d iv, single dose

CCCCCCCCCC(=O)N[C@@H](Cc1c[nH]c2ccccc12)C(=O)N[C@H](CC(N)=O)C(=O)N[C@@H](CC(=O)O)C(=O)N[C@@H]1C(=O)NCC(=O)N[C@@H](CCCN)C(=O)N[C@@H](CC(=O)O)C(=O)N[C@H](C)C(=O)N[C@@H](CC(=O)O)C(=O)NCC(=O)N[C@H](CO)C(=O)N[C@@H]([C@H](C)CC(=O)O)C(=O)N[C@@H](CC(=O)c2ccccc2N)C(=O)O[C@@H]1C [daptomycin]
CL ([1]; 6 mg/kg/d iv, multiple dose (day 6), average ± SD n = 3, SD): 0.412 ± 0.197 mL/min/kg
V d ([1]; 12 mg/kg/d iv, multiple dose (day 6), average ± SD n = 7, SD): 0.24 ± 0.11 L/kg
Tmax ([1]; human, in vivo, iv, 6 mg/kg): ~2 h
half-life ([1]; human, in vivo, iv, 6 mg/kg/d, 6 mg/kg/d iv, multiple dose (day 6), average ± SD n = 3, SD): 6.47 ± 1.34 h
half-life ([1]; human, in vivo, iv, 6 mg/kg/d, 6 mg/kg/d iv, single dose, average ± SD n = 3, SD): 5.64 ± 1 h
clearance ([1]; human, in vivo, iv, 12 mg/kg/d, 12 mg/kg/d iv, single dose, average ± SD n = 7, SD, read-out: CL (converted)): 0.375 mL/min/kg
half-life ([1]; human, in vivo, iv, 12 mg/kg/d, 12 mg/kg/d iv, single dose, average ± SD n = 7, SD): 7.4 ± 2.5 h
V d ([1]; human, in vivo, iv, V d, SD): 0.24 ± 0.1 L/kg
V d ([1]; human, in vivo, iv, SD): 0.19 ± 0.1 L/kg
clearance ([1]; human, in vivo, iv, SD): 0.403 mL/min/kg
AUC(0-t) ([1]; human, in vivo, 6 mg/kg/d iv, single dose, average ± SD n = 3, SD, read-out: AUC0–24): 255 ± 51.6 µg·h/mL
clearance ([1]; human, in vivo, 12 mg/kg/d iv, multiple dose (day 6), average ± SD n = 7, SD, read-out: CL (converted)): 0.33 mL/min/kg
t(h)½ ([1]; multiple doses, independent of the dose received (all patients)): 8.10 ± 1.91 h
AUC0–24 [1, 4]: 588.2 µg·h/mL
CL [1, 4]: 0.34 mL/min/kg
V d [1, 4]: 0.26 L/kg
t(h)½ [1, 4]: 8.8 h
AUC0–24 [1, 5]: 486.9 µg·h/mL
CL [1, 5]: 0.365 mL/min/kg
V d [1, 5]: 0.26 L/kg
AUC0–24 [1, 6]: 679.0 µg·h/mL
CL [1, 6]: 0.2945 mL/min/kg
V d [1, 6]: 0.22 L/kg
t(h)½ [1, 6]: 8.5 h
AUC0–24 [1, 7]: 511.2 µg·h/mL
CL [1, 7]: 0.36 mL/min/kg
V d [1, 7]: 0.21 L/kg
t(h)½ [1, 7]: 0.5 h
AUC0–24 [1, 8]: 580.7 µg·h/mL
CL [1, 8]: 0.3443 mL/min/kg
V d [1, 8]: 0.20 L/kg
t(h)½ [1, 8]: 6.7 h
AUC0–24 [1, 9]: 426.7 µg·h/mL
CL [1, 9]: 0.423 mL/min/kg
V d [1, 9]: 0.25 L/kg
t(h)½ [1, 9]: 0.5 h
AUC0–24 [1, 10]: 709.6 µg·h/mL
CL [1, 10]: 0.2818 mL/min/kg
V d [1, 10]: 0.16 L/kg
t(h)½ [1, 10]: 6.6 h
AUC0–24 [1, 11]: 477.6 µg·h/mL
CL [1, 11]: 0.388 mL/min/kg
V d [1, 11]: 0.29 L/kg
t(h)½ [1, 11]: 0.5 h
AUC0–24 [1, 12]: 987.6 µg·h/mL
CL [1, 12]: 0.2025 mL/min/kg
V d [1, 12]: 0.10 L/kg
t(h)½ [1, 12]: 5.7 h
AUC0–24 [1, 13]: 809.9 µg·h/mL
CL [1, 13]: 0.235 mL/min/kg
V d [1, 13]: 0.10 L/kg
t(h)½ [1, 13]: 1.5 h
AUC0–24 [1, 14]: 489.1 µg·h/mL
CL [1, 14]: 0.4088 mL/min/kg
V d [1, 14]: 0.32 L/kg
t(h)½ [1, 14]: 9.1 h
AUC0–24 [1, 15]: 439.4 µg·h/mL
CL [1, 15]: 0.445 mL/min/kg
V d [1, 15]: 0.15 L/kg
t(h)½ [1, 15]: 0.5 h
AUC0–24 [1, 16]: 456.2 µg·h/mL
CL [1, 16]: 0.4383 mL/min/kg
V d [1, 16]: 0.43 L/kg
t(h)½ [1, 16]: 11.3 h
AUC0–24 [1, 17]: 399.0 µg·h/mL
CL [1, 17]: 0.405 mL/min/kg
V d [1, 17]: 0.41 L/kg
t(h)½ [1, 17]: 0.5 h
AUC0–24 [1, 18]: 394.7 µg·h/mL
CL [1, 18]: 0.2928 mL/min/kg
V d [1, 18]: 0.15 L/kg
t(h)½ [1, 18]: 6.093 h
AUC0–24 [1, 19]: 273.7 µg·h/mL
CL [1, 19]: 0.3653 mL/min/kg
V d [1, 19]: 0.14 L/kg
t(h)½ [1, 19]: 4.97 h
AUC0–24 [1, 20]: 249.5 µg·h/mL
CL [1, 20]: 0.6387 mL/min/kg
V d [1, 20]: 0.44 L/kg
t(h)½ [1, 20]: 7.958 h
AUC0–24 [1, 21]: 197.0 µg·h/mL
CL [1, 21]: 0.5075 mL/min/kg
V d [1, 21]: 0.27 L/kg
t(h)½ [1, 21]: 6.737 h
AUC0–24 [1, 22]: 330.3 µg·h/mL
CL [1, 22]: 0.3027 mL/min/kg
V d [1, 22]: 0.14 L/kg
t(h)½ [1, 22]: 5.349 h
AUC0–24 [1, 23]: 295.2 µg·h/mL
CL [1, 23]: 0.3387 mL/min/kg
V d [1, 23]: 0.15 L/kg
t(h)½ [1, 23]: 5.377 h
serious adverse events or treatment discontinuations ([2]; 12 mg/kg/d iv once daily, entire study period): no serious adverse events or treatment discontinuations
CPK adverse reaction ([2]; patient no. 3, high-dose, day 3, returned to normal without discontinuation): transient increase of CPK
serious adverse events and nonserious AEs leading to discontinuation ([2]; whole study, 6 or 12 mg/kg/d for 7 to 14 days, 10 patients): No serious adverse events
Alb after daptomycin treatment (7 days) [3]: 40.5 ± 4.6 g/L
